The values below come from patent US8846912B2, “Tartrate salts of quinazoline based EGFR inhibitors containing a zinc binding moiety” (Curis, Inc., priority 2007, dated 2014).

SMILES strings stand for the structures.

For this experiment, the target named is HDAC. In words: HDAC fluorimetric enzyme assay (HeLa nuclear extract). It counts as biochemical. The protocol:
HDAC inhibitors were screened using an HDAC fluorimetric assay kit (AK-500, Biomol, Plymouth Meeting, Pa.).
Each assay was setup as follows: Defrosted all kit components and kept on ice until use. […] Prepared dilutions of Trichostatin A (TSA, positive control) and tested compounds in assay buffer (5× of final concentration). Diluted Fluor de Lys™ Substrate in assay buffer to 100 uM (50 fold=2× final). Diluted Fluor de Lys™ developer concentrate 20-fold (e.g. 50 μl plus 950 μl Assay Buffer) in cold assay buffer. Second, diluted the 0.2 mM Trichostatin A 100-fold in the 1× Developer (e.g. 10 μl in 1 ml; final Trichostatin A concentration in the 1× Developer=2 μM; final concentration after addition to HDAC/Substrate reaction=1 μM). Added Assay buffer, diluted trichostatin A or test inhibitor to appropriate wells of the microtiter plate. Added diluted HeLa extract or other HDAC sample to all wells except for negative controls.

Regarding `COc1cc2ncnc(Nc3ccc(F)c(Cl)c3)c2cc1OCC(=O)NO` [Compound 1, 2-(4-(3-Chloro-4-fluorophenylamino)-7-methoxyquinazolin-6-yloxy)-N-hydroxyacetamide], the IC50 was more than 10 µM.
In turn, `COc1cc2ncnc(Nc3ccc(F)c(Cl)c3)c2cc1OCCC(=O)NO` [Compound 2] showed a 50% inhibitory concentration (IC50) of more than 10 µM.
Molecule `COc1cc2ncnc(Nc3ccc(F)c(Cl)c3)c2cc1OCCCC(=O)NO` [Compound 3, 4-(4-(3-Chloro-4-fluorophenylamino)-7-methoxyquinazolin-6-yloxy)-N-hydroxybutanamide] displayed a concentration for half-maximal inhibition (IC50) of more than 10 µM.
Regarding `COc1cc2ncnc(Nc3ccc(F)c(Cl)c3)c2cc1OCCCCC(=O)NO` [Compound 4], the IC50 was 0.1 to 1 µM.
Under `COc1cc2ncnc(Nc3ccc(F)c(Cl)c3)c2cc1OCCCCCC(=O)NO` [Compound 5] stands less than 0.1 µM; under `C#Cc1cccc(Nc2ncnc3cc(OC)c(OCC(=O)NO)cc23)c1` [Compound 7, 2-(4-(3-ethynylphenylamino)-7-methoxyquinazolin-6-yloxy)-N-hydroxyacetamide], more than 10 µM.
`C#Cc1cccc(Nc2ncnc3cc(OC)c(OCCC(=O)NO)cc23)c1` [Compound 8] returned a 50% inhibitory concentration (IC50) of more than 10 µM.
Regarding `C#Cc1cccc(Nc2ncnc3cc(OC)c(OCCCC(=O)NO)cc23)c1` [Compound 9, 4-(4-(3-ethynylphenylamino)-7-methoxyquinazolin-6-yloxy)-N-hydroxybutanamide], the half-maximal inhibitory concentration (IC50) was 0.1 to 1 µM.
In the case of `C#Cc1cccc(Nc2ncnc3cc(OC)c(OCCCCC(=O)NO)cc23)c1` [Compound 10, 5-(4-(3-Ethynylphenylamino)-7-methoxyquinazolin-6-yloxy)-N-hydroxypentanamide] it was 0.1 to 1 µM; in that of `C#Cc1cccc(Nc2ncnc3cc(OC)c(OCCCCCC(=O)NO)cc23)c1` [Compound 11, 6-(4-(3-ethynylphenylamino)-7-methoxyquinazolin-6-yloxy)-N-hydroxyhexanamide], less than 0.1 µM; in that of `O=C(COc1ccc2ncnc(Nc3ccc(F)c(Cl)c3)c2c1)NO` [Compound 13, 2-(4-(3-Chloro-4-fluorophenylamino)quinazolin-6-yloxy)-N-hydroxyacetamide], more than 10 µM.
Under `O=C(CCOc1ccc2ncnc(Nc3ccc(F)c(Cl)c3)c2c1)NO` [Compound 14] stands 1 to 10 µM.
Turning to `O=C(CCCOc1ccc2ncnc(Nc3ccc(F)c(Cl)c3)c2c1)NO` [Compound 15, 4-(4-(3-chloro-4-fluorophenylamino)quinazolin-6-yloxy)-N-Hydroxybutanamide], the concentration for half-maximal inhibition (IC50) was less than 0.1 µM.
For the molecule `O=C(CCCCOc1ccc2ncnc(Nc3ccc(F)c(Cl)c3)c2c1)NO` [Compound 16, 5-(4-(3-chloro-4-fluorophenylamino)quinazolin-6-yloxy)-N-hydroxypentanamide], the half-maximal inhibitory concentration (IC50) lay within 0.1 to 1 µM.
For the molecule `O=C(CCCCCOc1ccc2ncnc(Nc3ccc(F)c(Cl)c3)c2c1)NO` [Compound 17, 6-(4-(3-Chloro-4-fluorophenylamino)quinazolin-6-yloxy)-N-hydroxyhexanamide], the IC50 was less than 0.1 µM.
In the case of `O=C(CCCCCCOc1ccc2ncnc(Nc3ccc(F)c(Cl)c3)c2c1)NO` [Compound 18, 7-(4-(3-chloro-4-fluorophenylamino)quinazolin-6-yloxy)-N-hydroxyheptanamide], the half-maximal inhibitory concentration (IC50) was less than 0.1 µM.
As for `C#Cc1cccc(Nc2ncnc3ccc(OCC(=O)NO)cc23)c1` [Compound 19, 2-(4-(3-ethynylphenylamino)quinazolin-6-yloxy)-N-hydroxyacetamide], the IC50 is more than 10 µM.
Under `C#Cc1cccc(Nc2ncnc3ccc(OCCCC(=O)NO)cc23)c1` [Compound 21, 4-(4-(3-ethynylphenylamino)quinazolin-6-yloxy)-N-hydroxybutanamide] stands 1 to 10 µM; under `C#Cc1cccc(Nc2ncnc3ccc(OCCCCC(=O)NO)cc23)c1` [Compound 22], less than 0.1 µM; under `C#Cc1cccc(Nc2ncnc3ccc(OCCCCCC(=O)NO)cc23)c1` [Compound 23, 6-(4-(3-ethynylphenylamino)quinazolin-6-yloxy)-N-hydroxyhexanamide], less than 0.1 µM.

The term IC50 denotes the point on the concentration scale where inhibition reaches its midpoint. The low end stands for inhibition by little substance, the high end for a need for much substance.
